{"source": "ChEMBL document CHEMBL1158864", "about": "“Pyrrolizidine Alkaloids from Senecio r oseus and Senecio h elodes” (J Nat Prod, 1997)", "key": {"[1]": {"system": "Trichoderma viride", "assay": "Antimicrobial activity against Trichoderma viride", "format": "functional, organism-based"}, "[2]": {"system": "Aspergillus niger", "assay": "Antimicrobial activity against Aspergillus niger", "format": "functional, organism-based"}, "[3]": {"system": "Escherichia coli", "assay": "Antimicrobial activity against Escherichia coli ATCC 10536", "format": "functional, organism-based"}, "[4]": {"assay": "(§1) Toxicity against Artemia salina", "format": "organism-based", "conditions": "in vivo"}, "[5]": {"system": "Artemia salina", "assay": "as §1", "format": "organism-based", "conditions": "in vivo"}}, "note": "The source made the active and inactive calls. The rule behind the calls is not given here.", "data": [{"compound": "C[C@@H]1C[C@]2(C)CC(=O)O[C@@H]3CCN4CC[C@H](COC(=O)[C@@]1(C)O2)[C@H]34", "note": "[MULGEDIIFOLINE]", "values": [{"measurement": "Activity", "setting": "[1]", "value": "inactive"}, {"measurement": "Activity", "setting": "[2]", "value": "inactive"}, {"measurement": "Activity", "setting": "[3]", "value": "inactive"}, {"measurement": "LC50", "setting": "[4]", "value": "> 300", "unit": "µg/mL"}]}, {"compound": "C[C@@H]1C[C@]2(C)CC(=O)O[C@@H]3CCN4CC=C(COC(=O)[C@@]1(C)O2)[C@H]34", "note": "[RETROISOSENINE HYDRCHLORIDE]", "values": [{"measurement": "LC50", "setting": "[4]", "value": "> 300", "unit": "µg/mL"}]}, {"compound": "C[C@@H]1C[C@]2(C)CC(=O)O[C@@H]3CCN4CC=C(COC(=O)[C@@]1(C)O2)[C@H]34", "values": [{"measurement": "Activity", "setting": "[1]", "value": "inactive"}, {"measurement": "Activity", "setting": "[2]", "value": "inactive"}, {"measurement": "Activity", "setting": "[3]", "value": "inactive"}]}, {"compound": "C[C@@H]1C[C@]2(C)CC(=O)O[C@@H]3CCN4CC=C(COC(=O)[C@@]1(C)O2)[C@H]34", "note": "[RETROISOSENINE]", "values": [{"measurement": "LC50", "setting": "[5]", "value": "> 300", "unit": "µg/mL"}]}, {"compound": "C[C@@H]1[C@@H](O)[C@]2(C)CC(=O)O[C@@H]3CCN4CC=C(COC(=O)[C@@]1(C)O2)[C@H]34", "values": [{"measurement": "Activity", "setting": "[1]", "value": "inactive"}, {"measurement": "Activity", "setting": "[2]", "value": "inactive"}, {"measurement": "Activity", "setting": "[3]", "value": "inactive"}, {"measurement": "LC50", "setting": "[4]", "value": "> 300", "unit": "µg/mL"}]}]}
